In patent US6838580B2, “Opioid derivative” (Teikoku Seiyaku Co., Ltd., priority 2002, dated 2005):

Legend:
δ-opioid receptor = biological target: T1, δ-opioid receptor (Rattus norvegicus, UniProt P33533); assay: Competitive receptor binding assay, synaptic membrane fraction, [3H]DPDPE; conditions: rat brain synaptic membrane, read-out: Affinity of receptor (Ki, nM) δ
T1 construct: synaptic membrane fraction obtained from the rat brain tissue; from tissue; host or cells: Sprague-Dawley rat brain without cerebellum, synaptic membrane (P2) fraction
Procedure: (§1) Regarding the opioid peptide derivatives synthesized in Examples and Reference Examples, the μ- and δ-opioid receptor affinities were obtained by a competitive receptor assay using the synaptic membrane fraction obtained from the rat brain tissue according to the known methods. That is, Sprague-Dawley rats having an average weight of 150-180 g were killed by decapitation, the brain tissue from which cerebellum had been removed was homogenized in 0.32M sucrose and 1 mM HEPES (pH 7.5) containing 50 μg/ml soybean trypsin inhibitor, fractionated and centrifuged to obtain the synaptic membrane fraction (P2 fraction), which was pre-incubated in 50 mM HEPES (pH 7.5) containing 100 mM NaCl, 0.1 mM GDP and soybean trypsin inhibitor to remove endogenous ligands from the P2 fraction.
(§2) A competitive receptor binding assay (Radiolabeled receptor assay: RRA) based on an exchange reaction between a radioactive ligand for the synaptic membrane fraction and a peptide derivative to be tested was performed by using tritium-labeled [^3H]DAGO which is a μ-opioid receptor agonist and tritium-labeled [^3H]DPDPE which has the high δ-opioid receptor selectivity, and incubating an aliquot of the synaptic membrane with the peptide derivative to be tested for a period of time. Upon this, an exchange reaction between a ligand was performed under constant conditions, the radiation remaining in the synaptic membrane fraction was measured, and an amount of the ligand adsorbed onto the synaptic membrane fraction is calculated. By assuming that binding with a receptor occurs in competition between a radioactive ligand and an end ligand, the concentration (IC50) at which the maximum specific binding of the radioactive ligand is 50% inhibited was obtained, from which the affinity constant (Ki) was calculated by a method of Cheng et al. (Biochem. Pharmcol., 22, 3099(1973)).

μ-opioid receptor [1] = biological target: T2, μ-opioid receptor (Rattus norvegicus, UniProt P33535); assay: Competitive receptor binding assay, synaptic membrane fraction, [3H]DAGO; conditions: for Ki: rat brain synaptic membrane, [3H]DAGO, read-out: Affinity of receptor (Ki, nM) μ; for Selectivity δ/μ: ratio Ki δ / Ki μ
T2 construct: synaptic membrane fraction obtained from the rat brain tissue; from tissue; host or cells: Sprague-Dawley rat brain without cerebellum, synaptic membrane (P2) fraction
Procedure: as §1, §2

μ-opioid receptor [2] = biological target: μ-opioid receptor (Cavia porcellus, UniProt A0ACM8Q262); assay: Guinea pig ileum (GPI) assay, inhibition of electrically stimulated constriction; assay type: cell-based; conditions: agonist activity, read-out: GPI (IC50 ± S.E.)
Procedure: An assay test for agonist and antagonist activities of opioid compounds was performed using guinea pig ileum (GPI) and mouse seminiferous tract (MVD). That is, male guinea pigs having the weight of around 300 g were killed by exsanguination, an ileum section having a length of around 10 cm was isolated from an ileum close to an ileum-caecum region was held at 36° C. The ileum section was placed in a Magnus tube treated with an oxygen mixture (95% O2/5% CO2) and filled with Krebs solution in the state where the rest tension of 1 g was applied with an isotonic transducer and, then, was performed. Then, the electrical stimulation was applied at 30V for 0.5 ms. via electrode previously installed in the Magnus tube to constrict guinea pig ileum longitudinal muscle and, after constriction was stabilized, a peptidase inhibitor was added. Then, the present peptide derivative to be tested was added, the constriction of guinea pig ileum longitudinal muscle was taken by GrassFTO 0.3 transducer and monitored by an amplifier and a recorder connected to the transducer. The opioid activity was determined by constriction inhibition after addition of the peptide derivative to be tested and constriction inhibition cancellation by addition of naloxone, a selective opioid antagonist. […]

T2 sequence (P33535 whole entry): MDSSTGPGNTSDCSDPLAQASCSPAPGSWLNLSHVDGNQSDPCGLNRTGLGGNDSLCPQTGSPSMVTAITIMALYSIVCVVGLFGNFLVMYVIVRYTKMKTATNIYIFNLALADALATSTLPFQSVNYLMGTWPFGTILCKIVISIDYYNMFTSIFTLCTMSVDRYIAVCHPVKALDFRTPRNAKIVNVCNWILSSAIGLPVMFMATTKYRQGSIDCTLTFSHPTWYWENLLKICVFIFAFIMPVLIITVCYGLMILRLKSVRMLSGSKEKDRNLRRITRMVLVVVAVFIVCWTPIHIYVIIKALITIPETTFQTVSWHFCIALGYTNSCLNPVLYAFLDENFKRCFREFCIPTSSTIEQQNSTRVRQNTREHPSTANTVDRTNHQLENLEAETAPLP
T1 sequence (P33533 whole entry): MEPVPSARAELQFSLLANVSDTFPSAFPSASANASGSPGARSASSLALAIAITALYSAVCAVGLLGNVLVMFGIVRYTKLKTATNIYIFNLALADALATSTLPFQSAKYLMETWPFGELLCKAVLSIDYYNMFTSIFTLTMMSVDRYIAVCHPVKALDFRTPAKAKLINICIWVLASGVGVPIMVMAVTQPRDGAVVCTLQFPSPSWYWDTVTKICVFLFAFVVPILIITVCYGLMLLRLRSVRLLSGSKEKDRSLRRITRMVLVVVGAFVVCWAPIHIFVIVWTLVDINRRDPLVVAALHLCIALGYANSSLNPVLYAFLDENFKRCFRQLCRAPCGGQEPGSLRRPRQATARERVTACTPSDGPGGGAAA
Sequence of μ-opioid receptor (Cavia porcellus, UniProt A0ACM8Q262) (A0ACM8Q262 1-400): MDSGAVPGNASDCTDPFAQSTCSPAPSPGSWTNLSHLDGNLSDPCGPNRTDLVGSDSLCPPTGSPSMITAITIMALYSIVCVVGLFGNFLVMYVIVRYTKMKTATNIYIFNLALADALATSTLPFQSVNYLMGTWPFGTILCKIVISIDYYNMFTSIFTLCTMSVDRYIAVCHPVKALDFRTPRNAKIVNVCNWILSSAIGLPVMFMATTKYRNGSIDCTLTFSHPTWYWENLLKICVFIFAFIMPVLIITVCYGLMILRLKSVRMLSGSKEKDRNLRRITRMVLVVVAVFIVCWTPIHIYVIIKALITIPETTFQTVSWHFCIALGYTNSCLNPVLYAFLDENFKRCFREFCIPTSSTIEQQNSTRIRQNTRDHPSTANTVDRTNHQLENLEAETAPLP

Q: Which Ki (δ-opioid receptor) does the source give for `Cc1cc(O)cc(C)c1C[C@H](N)C(=O)NCCCCNC(=O)[C@@H](N)Cc1c(C)cc(O)cc1C.Cl.Cl` [Ex.1, 1,4-Bis-(Dmt-amino)butane.2HCl] here?
A: Its Ki is 53.4 ± 14.8 nM.

Q: What about the Ki (μ-opioid receptor [1]) of the same compound?
A: The Ki was 0.041 ± 0.003 nM.

Q: What about the “Selectivity δ/μ” value (μ-opioid receptor [1]) of the same compound?
A: The value was 1300.

Q: And the IC50 (μ-opioid receptor [2])?
A: Its IC50 is 5.33 ± 0.65 nM.

Q: What does the source list for `Cc1cc(O)cc(C)c1C[C@H](N)C(=O)NCCCCCCNC(=O)[C@@H](N)Cc1c(C)cc(O)cc1C` [Ex.4, 1,6-Bis(Dmt-amino)hexane.2HCl]?
A: Ki (δ-opioid receptor): 46.1 ± 8.8 nM; Ki (μ-opioid receptor [1]): 0.053 ± 0.01 nM; Selectivity δ/μ (μ-opioid receptor [1]): 870
